Reference: patent publication US9308244B2, “Combination therapy using active immunotherapy” (immatics Biotechnologies GmbH, priority 2007, dated 2016)
Entries after “also recorded” stand apart in the source; their conditions may differ.

How the values were obtained:
[1] = system: primary clear cell renal cell carcinoma (ccRCC); assay: mRNA expression in primary ccRCC tumor tissue of a patient treated with sorafenib before surgery; assay type: in vivo, human
Procedure: mRNA expression was measured as described in 1.1 except that mRNA from 20 primary clear cell renal cell carcinoma (ccRCC) samples of patients not treated with TKIs and 1 locally recurring ccRCC tumor sample of a patient having received sorafenib treatment (800 mg Nexavar™ per day starting 35 days before and stopping 2 days before surgery) previous to surgery were included in this analysis.
Tumor tissue specimens were snap-frozen in liquid nitrogen immediately after surgery and later homogenized with mortar and pestle under liquid nitrogen. Total RNA was prepared from these samples using TRIzol (Invitrogen) or TRI Reagent (Fermentas) followed by a cleanup with RNeasy (QIAGEN); both methods were performed according to the manufacturers' protocols.
Gene expression analysis of the tumor samples was performed by Affymetrix Human Genome (HG) U133A or HG-U133 Plus 2.0 oligonucleotide microarrays (Affymetrix, Santa Clara, Calif., USA). A normal reference kidney sample was hybridized to both array types to achieve direct comparability of all samples.
Briefly, double-stranded cDNA was synthesized from 5-8 μg of total RNA, using SuperScript RTII (Invitrogen) and the oligo-dT-T7 primer (MWG Biotech, Ebersberg, Germany) as described in the manual. […] Pairwise comparisons were calculated using the respective normal reference kidney array as baseline. […] Relative expression values were calculated from the signal log ratios given by the software and the normal kidney sample was arbitrarily set to 1.0.

[2] = system: A498 and RCC068; assay: Long-term culture of renal cell carcinoma cell lines in the presence of TKIs; assay type: cell-based, human; conditions: 13 μM sorafenib, 14 d time point, cells harvested after 10 days
Procedure: The human renal cell carcinoma cell lines A498 and RCC068 were cultured in RPMI medium (5% FCS (Biochrom, Berlin, Germany), 5% HS (PromoCell, Heidelberg, Germany)). […] For each time point 3 flasks of each cell line were prepared by containing either 0.1% DMSO alone as a control, 13 μM sorafenib (8.3 μg/ml sorafenib tosylate)+0.1% DMSO, or 250 nM sunitinib (133 ng/ml sunitinib malate).
A normal medium control sample containing neither DMSO nor TKIs was harvested at 1 h for each cell line.

[3] = system: A498 tumor cells; conditions: A498, 24 h; 13 μM sorafenib or 250 nM sunitinib; normal medium control = 100%
[4] = system: C57BL/6 T cells; assay: Mouse mixed lymphocyte reaction (CFSE-labeled C57BL/6 spleen cells vs irradiated BALB/c splenocytes); assay type: cell-based; conditions: for Cell morphology in flow cytometry (putatively toxic effects): 13 μM sorafenib
Procedure: CFSE-labeled spleen cells from C57BL/6 (H2-b) mice were co-cultured with irradiated splenocytes from BALB/c (H2-d) mice, resulting in the strong allogenic response and proliferation of the C57BL/6 T cells against H2-d MHC molecules. The proliferation of the T cells results in a diminished CFSE staining of the divided cells. Percentage of divided cells and their number of divisions can be analyzed by flow cytometry.
Spleen cells were prepared from 1 C57BL/6 mouse and 1 BALB/c mouse (Harlan Winkelmann GmbH, Borchen, Germany). BALB/c cells were irradiated with 33 Gy. Effectors (C57BL/6) were adjusted to 20 Mio cells/ml. A 2 mM 5(6)-Carboxyfluorescindiacetate-N-succinimidylester (CFSE, Fluka, Buchs, Switzerland) solution in PBS was freshly prepared from a 10 mM DMSO stock solution. The cell suspension was mixed 1:1 with the CFSE solution. After incubation at 37° C. for 4 min, reaction was stopped by addition of fetal calf serum (Biochrom, Berlin, Germany), and free CFSE was washed out. 2×10^5 stimulator cells (BALB/c) were plated into cavities of a 96-well round-bottom plate. 1×10^5 or 2×10^5 CFSE-labeled effector cells and tyrosine kinase inhibitors at two different concentrations were added. Appropriate positive and negative controls were included. All cultures were in 200 μl T-cell medium with 0.1% (v/v) DMSO for 5 or 7 days without further medium change. Thereafter, cells were stained with fluorescently labelled anti-CD4-PerCP and anti-CD8-FITC antibodies (both BD Biosciences, Heidelberg, Germany) and analyzed by flow cytometry.
The experiment described above was repeated with the exception that a 96-well flat-bottom plate was used for mixed lymphocyte reactions (MLRs), a syngenic control with irradiated C57BL/6 cells was included, more concentrations of inhibitors were assessed, and all groups were analyzed in triplicates.
During cultivation, half of the medium was replaced with fresh appropriate medium supplemented with final concentrations of tyrosine kinase inhibitors every day, and proliferation was analyzed at day 7 only. Additionally cells were stained for H2-Kb to clearly identify effector cells in a further dimension.

[5] = system: human CD8+ T-cells; assay: Artificial APC (pMHC/anti-CD28 bead) priming and expansion of isolated human CD8+ T-cells, MLA-001 tetramer readout; assay type: cell-based; conditions: three stimulation cycles, high and low density pMHC, absence of natural antigen presenting cells
[6] = RCC of one patient, 800 mg Nexavar per day from 35 to 2 days before surgery, normal kidney = 1.0
[7] = RCC of one patient, 800 mg Nexavar per day from 35 to 2 days before surgery, normal kidney = 1.0, listed as sorafenib

Question: What does the source list for `CNC(=O)c1cc(Oc2ccc(NC(=O)Nc3ccc(Cl)c(C(F)(F)F)c3)cc2)ccn1` [Sorafenib, 4-(4-{3-[4-Chloro-3-(trifluoromethyl)phenyl]ureido}phenoxy)-N-methylpyrid-ine-2-carboxamide]?
Answer: Expression relative to normal reference kidney: ADFP [1, 6]: 5.7; Expression relative to normal reference kidney: APOL1 [1, 6]: 19.7; Expression relative to normal reference kidney: CCND1 [1, 6]: 3.2; Expression relative to normal reference kidney: GUCY1A3 [1, 6]: 0.5; Expression relative to normal reference kidney: HLA-A [1, 6]: 0.9; Expression relative to normal reference kidney: HLA-B [1, 6]: 2.1; Expression relative to normal reference kidney: HLA-C [1, 6]: 1.0; Expression relative to normal reference kidney: HLA-DPB1 [1, 6]: 4.0; Expression relative to normal reference kidney: HLA-DQB1 [1, 6]: 168.9; Expression relative to normal reference kidney: HLA-DRB1 [1, 6]: 2.8; Expression relative to normal reference kidney: KIAA0367 [1, 6]: 1.2; Expression relative to normal reference kidney: MET [1, 6]: 9.8; Expression relative to normal reference kidney: MMP7 [1, 6]: 6.1; Expression relative to normal reference kidney: MUC1 [1, 6]: 0.3; Expression relative to normal reference kidney: PSMB8 [1, 6]: 3.5; Expression relative to normal reference kidney: PSMB9 [1, 6]: 5.7; Expression relative to normal reference kidney: RGS5 [1, 6]: 1.5; Expression relative to normal reference kidney: TAP1 [1, 6]: 2.1; Expression relative to normal reference kidney: GUCY1A3 [1, 7]: at the lower boundary of the range; Expression relative to normal reference kidney: RGS5 [1, 7]: at the lower boundary of the range; Expression profile of tumor associated antigens or their HLA presentation in vivo vs range of untreated ccRCC (in words) ([1]; one sorafenib-treated patient vs 20 untreated ccRCC, range = mean ± one standard deviation): lie within this range for most antigens; also recorded: do not provide any evidence for a potential influence; Cell growth in culture [2]: prevented cell growth; % Expression relative to control: ADFP [3]: 100%; % Expression relative to control: APOL1 [3]: 71%; % Expression relative to control: CCND1 [3]: 81%; % Expression relative to control: GUCY1A3 [3]: 44%; % Expression relative to control: HLA-A [3]: 100%; % Expression relative to control: HLA-B [3]: 87%; % Expression relative to control: HLA-C [3]: 87%; % Expression relative to control: MET [3]: 62%; % Expression relative to control: MMP7 [3]: 25%; % Expression relative to control: MUC1 [3]: 107%; % Expression relative to control: PSMB8 [3]: 87%; % Expression relative to control: PSMB9 [3]: 123%; % Expression relative to control: TAP1 [3]: 123%; CD4+ T-cell proliferation in response to allogenic stimuli (summary) [4]: increased; CD8+ T-cell proliferation in response to allogenic stimuli (summary) [4]: slightly decreased; also recorded: slightly reduced; CD8 proliferation ([4]; first experiment, 1.3 μM sorafenib): only slightly affected; Cell morphology in flow cytometry (putatively toxic effects) ([4]; first experiment): different morphology; Cell morphology in flow cytometry (putatively toxic effects) ([4]; first experiment, listed as sorafenib): clear change in morphology; Level inducing toxic effects (dramatically changed morphology of cells in flow cytometry) ([4]; second experiment): ≥ 6.5 μM; Cell morphology (toxic effects of the drug) ([4]; second experiment, 6.5 or 13 μM Sorafenib): severe changes in morphology; CD8+ proliferation ([4]; second experiment, day 7): slight decrease; Proliferation of CD4+ cells ([4]; second experiment, day 7, 1.6 μM sorafenib): significant increase; Drug-related toxicity for cells in mixed lymphocyte reactions (summary) ([4]; sorafenib: at concentration near the steady-state plasma level of treated patients): toxic; Priming and expansion of MLA-001 specific CD8+ T-cells (% tetramer+ among CD8+ lymphocytes, total number per well) [5]: no concentration-dependent influence; also recorded: not altered
